# Data: paper PMC7570662, “In Vivo Pharmacokinetic Analysis Utilizing Non-Targeted and Targeted Mass Spectrometry and In Vitro Assay against Transient Receptor Potential Channels of Maobushisaishinto and Its Constituent Asiasari Radix” (Molecules, 2020)
# Assays:
# [1] = Qualitative non-targeted LC-HRMS analysis of AR compounds in rat plasma after oral AR or MBST; format: in vivo; details: for Detection in plasma of rats treated with AR or MBST (non-targeted analysis): po
# Experimental: Extract powders of AR or MBST were suspended in distilled water and orally administered to rats having fasted for approximately 16 h. The dose of AR was set at 2 g/kg, and the MBST doses were set at 1 and 2 g/kg. 1 g/kg MBST contained 578 µg/kg, 147 µg/kg, 226 µg/kg, 426 µg/kg asarinin, sesamin, methyl kakuol, and amide A, respectively. The doses were chosen based on a previous pharmacological study of MBST using rats.
# According to previous pharmacokinetic studies of herbal medicines, many of the components were quickly absorbed into the bloodstream, thereby providing the rationale for a sampling time at 1 h. Blood was centrifuged at 1200× g at 4 °C for 30 min to obtain plasma; then, the sample was stored at −80 °C until LC-HRMS analysis. […]
# The plasma samples were collected at 1 h after MBST administration in case of both the qualitative (non-targeted) analysis and the quantitative (targeted) analysis.
# The plasma samples of AR- or MBST-treated rats collected at 1 h post-administration were pretreated by deproteinization using methanol before the LC-HRMS analysis as follows: 100 µL plasma sample was mixed with 500 µL methanol, and the resultant solution was vortexed for 2 min. The mixture was centrifuged at 7000× g at 4 °C for 5 min. The supernatant was dried using a centrifugal evaporator, and the dried residue was dissolved in 100 μL of the initial LC mobile phase which is composed of 0.1 vol% formic acid in water/acetonitrile (99.9/0.1, v/v) and recentrifuged at 7000× g at 4 °C for 5 min. Finally, a 5 μL aliquot of the supernatant was injected into the LC-HRMS system comprised of an Acquity Ultra-Performance Liquid Chromatography System (Waters, Milford, MA, USA) and a Xevo G2-XS quadrupole time-of-flight MS (Waters) and was chromatographically separated using an ACQUITY UPLC HSS T3 column (2.1 × 150 mm I.D., 1.8-μm particle size; Waters) with an ACQUITY UPLC HSS T3 VanGuard Pre-column (2.1 mm × 5 mm I.D., 1.8-μm particle size; Waters) at 40 °C. The mobile phase consisted of solution A (0.1% formic acid, v/v) and solution B (acetonitrile) with a gradient of solution B (0.1%, 0 min; 99%, 24 min; v/v) at a flow rate of 0.4 mL/min. The analysis of the mass spectrometer fit with an electrospray ionization probe with sensitivity mode was performed for both the positive and negative ion mode. The resolution of the mass spectrometer was set at >20,000. For MS^E experiments, two acquisition functions with different collision energies were created: a low-energy function with a collision energy of 6 eV and a high-energy function with collision energy ranging from 15 to 40 eV.
# [2] = test system: LPS-induced NO production in BV-2 microglial cells; design: method as in PMID 18293448; details: cited from earlier work
Structure (SMILES),Effect on LPS-induced NO production in BV-2 microglial cells [2],"Detection in plasma of rats treated with AR or MBST (non-targeted analysis) ([1]; rat, in vivo)",further results
"C/C=C/C=C\CC/C=C/C=C/C(=O)NCC(C)C [Amide A, (2E,4E,8Z,10E)-N-isobutyl-2,4,8,10-dodecatetraenamide]",inhibitory effect,,"Metabolites found in AR- or MBST-treated plasma ([1]; rat, in vivo): metabolized into an alkylated and a water adducted + alkylated form"
"c1cc2c(cc1[C@H]1OC[C@H]3[C@@H]1CO[C@H]3c1ccc3c(c1)OCO3)OCO2 [Asarinin, (−)-Asarinin]",,not detected,
CCC(=O)c1cc2c(cc1OC)OCO2 [Methyl kakuol],,,"AR-Treated Rat Plasma (detection of compound) ([1]; rat plasma 1 h after oral 2 g/kg AR, n = 1, LC-HRMS): + (The number of plus signs represents the sample number in which the compound was detected among AR-treated rat plasma (n = 1) and MBST-treated rat plasma (n = 3)); MBST-Treated Rat Plasma (detection of compound) ([1]; rat plasma 1 h after oral 2 g/kg MBST, n = 3, LC-HRMS): + + + (The number of plus signs represents the sample number in which the compound was detected among AR-treated rat plasma (n = 1) and MBST-treated rat plasma (n = 3)); Metabolites found in AR- or MBST-treated plasma ([1]; rat plasma, non-targeted LC-HRMS, phase I and II metabolite exploration): metabolized into a sulfate conjugate and a dehydrogenated + sulfate conjugate form"
c1cc2c(cc1[C@H]1OC[C@H]3[C@@H]1CO[C@@H]3c1ccc3c(c1)OCO3)OCO2 [Sesamin],inhibitory effect,not detected,
